Data set [1] relates to Neutrophil. Nature of the data set: Antiinflammatory activity against human neutrophils assessed as inhibition of LPS-stimulated TNFalpha production at 10 ug/ml after 3 hrs by FACS analysis. A general note: Flow cytometry measures light scatter and fluorescence of single cells or particles in a stream.
For data set [2], the species on record is Homo sapiens. Nature of the data set: Toxicity in healthy human assessed as occurrence of after taste. It is filed as organism-based. The conditions noted are these: in vivo.
For data set [3], the system named is Streptococcus mutans. Description: Bactericidal activity against Streptococcus mutans ATCC 25175 after 24 hrs by turbidimetric analysis. The conditions noted are these: ATCC 25175, 24 h. It is filed as functional.
Data set [4] concerns Actinomyces viscosus. Description: Antimicrobial activity against Actinomyces viscosus ATCC 15987 assessed as post antibiotic effect at 250 ug/ml. Format: functional.
The test system of data set [5] is Prevotella intermedia. Description: Antimicrobial activity against Prevotella intermedia ATCC 25611 by turbidimetric analysis. It is filed as functional.
The subject of data set [6] is Streptococcus mutans. As to conditions: ATCC 25175, 1000 ug/ml.
Description: Antimicrobial activity against adherent cells of Streptococcus mutans ATCC 25175 assessed as inhibition of water-insoluble glucan synthesis at 1000 ug/ml in presence of sucrose
For data set [7], the system named is Porphyromonas gingivalis. Nature of the data set: Bactericidal activity against Porphyromonas gingivalis ATCC 33277 after 24 hrs by turbidimetric analysis. It is filed as functional. The conditions noted are these: ATCC 33277, 24 h.
In data set [8] the test system is Actinomyces viscosus. Description: Antimicrobial activity against Actinomyces viscosus ATCC 15987 assessed as post antibiotic effect at 2 times MIC. It is filed as functional.
Data set [9] has as its system Actinomyces viscosus. Description: Antimicrobial activity against Actinomyces viscosus ATCC 15987 by turbidimetric analysis. It is filed as functional.
Data set [10] deals with Streptococcus mutans. Nature of the data set: Antimicrobial activity against Streptococcus mutans ATCC 25175 assessed as inhibition of biofilm formation after 24 hrs by crystal violet staining. Format: functional, organism-based. As to conditions: ATCC 25175, 24 h.
Data set [11] deals with Fusobacterium nucleatum. Description: Antimicrobial activity against Fusobacterium nucleatum ATCC 10953 by turbidimetric analysis. It is filed as functional.
For data set [12], the species on record is Homo sapiens. Nature of the data set: Toxicity in healthy human assessed as occurrence of tingling sensation. As to conditions: in vivo. Format: organism-based.
Data set [13] relates to Actinomyces viscosus. Nature of the data set: Bactericidal activity against Actinomyces viscosus ATCC 15987 after 24 hrs by turbidimetric analysis. It is filed as functional. The conditions noted are these: ATCC 15987, 24 h.
Data set [14] deals with Fusobacterium nucleatum. Nature of the data set: Bactericidal activity against Fusobacterium nucleatum ATCC 10953 after 24 hrs by turbidimetric analysis. As to conditions: ATCC 10953, 24 h. It is filed as functional.
The test system of data set [15] is Enterococcus faecalis. Description: Bactericidal activity against Enterococcus faecalis ATCC 29212 after 24 hrs by turbidimetric analysis. Format: functional. As to conditions: ATCC 29212, 24 h.
Data set [16] deals with Neutrophil. Nature of the data set: Antiinflammatory activity against human neutrophils assessed as inhibition of LPS-stimulated TNFalpha production at 2.5 ug/ml after 3 hrs by FACS analysis. Format: functional, cell-based.
The subject of data set [17] is Neutrophil. Nature of the data set: Antiinflammatory activity against human neutrophils assessed as inhibition of LPS-stimulated TNFalpha production at 5 ug/ml after 3 hrs by FACS analysis. It is filed as functional, cell-based.
In data set [18] the test system is Aggregatibacter actinomycetemcomitans. Nature of the data set: Bactericidal activity against Haemophilus actinomycetemcomitans ATCC 29522 after 24 hrs by turbidimetric analysis. Format: functional. The conditions noted are these: ATCC 29522, 24 h.
For data set [19], the system named is Actinomyces viscosus. Description: Antimicrobial activity against Actinomyces viscosus ATCC 15987 assessed as eradication of preformed biofilm after 24 hrs by crystal violet staining. Format: functional, organism-based. As to conditions: ATCC 15987, 24 h.
In data set [20] the test system is Enterococcus faecalis. Description: Antimicrobial activity against Enterococcus faecalis ATCC 29212 by turbidimetric analysis. Format: functional.
Data set [21] relates to Actinomyces viscosus. Description: Antimicrobial activity against Actinomyces viscosus ATCC 15987 assessed as inhibition of biofilm formation after 24 hrs by crystal violet staining. It is filed as functional, organism-based. The conditions noted are these: ATCC 15987, 24 h.
Data set [22] has as its system Streptococcus mutans. Description: Antimicrobial activity against Streptococcus mutans ATCC 25175 after 12 hrs by time kill analysis. Format: functional, organism-based.
Data set [23] concerns Streptococcus mutans. Description: Antimicrobial activity against adherent cells of Streptococcus mutans ATCC 25175 at 1000 ug/ml. It is filed as functional, organism-based.
Data set [24] concerns Liver microsomes. Nature of the data set: Antioxidant activity in rat liver microsomes assessed as reduction in lipid peroxidation at 10 to 100 ug/ml by thiobarbituric acid assay. Format: functional. The conditions noted are these: Microsome. (Liver microsomes are vesicles of endoplasmic reticulum, rich in cytochrome P450 enzymes.)
Data set [25] concerns Streptococcus sanguinis. Nature of the data set: Antimicrobial activity against Streptococcus sanguis ATCC 10556 by turbidimetric analysis. It is filed as functional.
Data set [26] deals with Prevotella intermedia. Nature of the data set: Bactericidal activity against Prevotella intermedia ATCC 25611 after 24 hrs by turbidimetric analysis. Format: functional. As to conditions: ATCC 25611, 24 h.
In data set [27] the test system is Streptococcus sanguinis. Nature of the data set: Bactericidal activity against Streptococcus sanguis ATCC 10556 after 24 hrs by turbidimetric analysis. It is filed as functional. The conditions noted are these: ATCC 10556, 24 h.
Data set [28] has as its system Neutrophil. Description: Antiinflammatory activity against human neutrophils assessed as inhibition of LPS-stimulated TNFalpha production at 10 ug/ml after 3 hrs by FACS analysis. It is filed as functional, cell-based.
In data set [29] the test system is Streptococcus mutans. Description: Antimicrobial activity against Streptococcus mutans ATCC 25175 by turbidimetric analysis. Format: functional.
The subject of data set [30] is Streptococcus mutans. Description: Antimicrobial activity against Streptococcus mutans ATCC 25175 at 125 to 500 ug/ml by time kill analysis. Format: functional, organism-based. The conditions noted are these: TDE = time-dependent effect.
For data set [31], the system named is Streptococcus mutans. Nature of the data set: Antimicrobial activity against Streptococcus mutans ATCC 25175 assessed as increase in membrane permeability at 1000 ug/ml after 30 mins by propidium iodide staining-based flow cytometry. It is filed as functional, organism-based.
Data set [32] deals with Streptococcus mutans. Nature of the data set: Antimicrobial activity against Streptococcus mutans ATCC 25175 assessed as post antibiotic effect at 250 ug/ml. It is filed as functional.
Data set [33] is described as follows: Cytotoxicity against human neutrophils at 2.5 to 10 ug/ml after 3 hrs by MTT assay. It is filed as cell-based. As to conditions: neutrophil. For orientation: Tetrazolium dyes change colour on reduction, which living cells bring about.
Data set [34] has as its system Enterococcus faecium. Description: Bactericidal activity against Enterococcus faecium ATCC 8042 after 24 hrs by turbidimetric analysis. The conditions noted are these: ATCC 8042, 24 h. It is filed as functional.
The test system of data set [35] is Actinomyces viscosus. Description: Antimicrobial activity against Actinomyces viscosus ATCC 15987 assessed as increase in membrane permeability at 1000 ug/ml after 30 mins by propidium iodide staining-based flow cytometry. Format: functional, organism-based.
The subject of data set [36] is Aggregatibacter actinomycetemcomitans. Nature of the data set: Antimicrobial activity against Haemophilus actinomycetemcomitans ATCC 29522 by turbidimetric analysis. It is filed as functional.
Data set [37] concerns Enterococcus faecium. Nature of the data set: Antimicrobial activity against Enterococcus faecium ATCC 8042 by turbidimetric analysis. Format: functional.
In data set [38] the test system is Porphyromonas gingivalis. Description: Antimicrobial activity against Porphyromonas gingivalis ATCC 33277 by turbidimetric analysis. It is filed as functional.
The subject of data set [39] is Streptococcus mutans. Nature of the data set: Antimicrobial activity against Streptococcus mutans ATCC 25175 assessed as log reduction in bacterial growth at 250 ug/ml measured at 10 hrs by time kill analysis. It is filed as functional.
For data set [40], the system named is Streptococcus mutans. Description: Antimicrobial activity against Streptococcus mutans ATCC 25175 assessed as post antibiotic effect at 2 times MIC. Format: functional.
Data set [41] concerns Streptococcus mutans. Description: Antimicrobial activity against Streptococcus mutans ATCC 25175 assessed as eradication of preformed biofilm after 24 hrs by crystal violet staining. Format: functional, organism-based. The conditions noted are these: ATCC 25175, 24 h.

Molecules are shown by their SMILES. ≈ marks a conversion by molar mass, not a printed value. Calls of active or inactive are those of the source. No cut-off for these calls is given here.

We go through 3 compounds from ChEMBL document CHEMBL1629551, “Evaluation of the antimicrobial, antioxidant, and anti-inflammatory activities of hydroxychavicol for its potential use as an oral care agent” (Antimicrob Agents Chemother, 2009).

As usually defined, the inhibition is how much of the control response was suppressed. One may read the IC50 as the concentration at which inhibition is half-maximal.

For the compound `COc1ccc(C2CNC(=O)C2)cc1OC1CCCC1` (configuration not stated), the inhibition entry in data set [1] was “Active”.
`C=CCc1ccc(O)c(O)c1` [HYDROXYCHAVICOL]: the Activity result in data set [2] was “Non-toxic”; in [12], “Non-toxic”; in data set [22], “Dose-dependent effect”; in [30] it was “tde”; in data set [33] it was “Non-toxic”. The MBC was determined as 500 µg/mL (≈ 3330 µM) in data set [3]; 62.5 µg/mL (≈ 416 µM) in [7]; 500 µg/mL (≈ 3330 µM) in data set [13]; 125 µg/mL (≈ 832 µM) in data set [14]; 250 µg/mL (≈ 1660 µM) in data set [15]; 500 µg/mL (≈ 3330 µM) in data set [18]. Also, the results for the MBC in data set [26], in [27] and in [34] were 125 µg/mL (≈ 832 µM), 125 µg/mL (≈ 832 µM) and 500 µg/mL (≈ 3330 µM), respectively. For the same compound, the PAE came out at 4 h in [4], 7 h in data set [8], 3.5 h in [32] and 6 h in data set [40]. Moreover, the MIC in data set [5] was determined as 125 µg/mL (≈ 832 µM); in data set [9] it was 250 µg/mL (≈ 1660 µM); in data set [11] it was 125 µg/mL (≈ 832 µM); in data set [20] it was 250 µg/mL (≈ 1660 µM); in [25] it was 125 µg/mL (≈ 832 µM); in data set [29], 250 µg/mL (≈ 1660 µM). The MIC is 250 µg/mL (≈ 1660 µM) in data set [36], 250 µg/mL (≈ 1660 µM) in data set [37] and 62.5 µg/mL (≈ 416 µM) in data set [38]. In addition, the inhibition entry in [6], in [16], in data set [17] and in data set [28] was “Active” throughout. Further, the IC50 was determined as 500 µg/mL (≈ 3330 µM) in [10], 1000 µg/mL (≈ 6660 µM) in data set [19], 500 µg/mL (≈ 3330 µM) in data set [21] and 500 µg/mL (≈ 3330 µM) in data set [41]. Also, the outcome in data set [23], in data set [31] and in data set [35] was Active. Also, the inhibition in data set [24] was found to be 15%. Further, the log reduction in [39] was determined as 3.
Regarding `Cc1ccc(C(C)C)c(O)c1` [THYMOL], the Activity result in data set [33] was “Non-toxic”.
